Values of other authors, collected in paper PMC7904743, “WIDOCK: a reactive docking protocol for virtual screening of covalent inhibitors” (Journal of Computer-Aided Molecular Design, 2021).
Read-outs that look alike come from different tables or passages of the source.

Tests used:
OTUB2 = conditions: experimental actives if % labeling higher than 50%, cited from earlier work
NUDT7 = conditions: protein labeling at 200 μM; experimental actives if % labeling higher than 50%; cited from earlier work
[1] = thiol reactivity, cited from earlier work
[2] = natural log of average rate constant k
[3] = natural logarithm of average rate constant
[4] = natural log of average kinetic rate constant
[5] = natural log of average rate constant

In the case of `Cc1c(Cl)cccc1NC(=O)CCl` [PCM-0102130, Cc1c(Cl)cccc1NC(=O)CCl], the OTUB2 % labeling (OTUB2) is listed as 0%, the NUDT7 % labeling (NUDT7) is listed as 0% and the “ln(avg k)” value [1, 2] is listed as -15.962. For the same compound, the “ln(avg k)” value [1, 3] was -15.962.
For `Cc1ccc([N+](=O)[O-])c(NC(=O)CCl)c1C` [PCM-0102511, Cc1ccc([N+](=O)[O-])c(NC(=O)CCl)c1C], the OTUB2 % labeling (OTUB2) is listed as 7%, the NUDT7 % labeling (NUDT7) is listed as 15% and the “ln(avg k)” value [1, 2] is listed as -16.700. For the same compound, the “ln(avg k)” value [1, 3] was -16.700.
For `O=C(CCl)NNC(=O)c1ccc(Cl)cc1` [PCM-0102953, O=C(CCl)NNC(=O)c1ccc(Cl)cc1], the OTUB2 % labeling (OTUB2; OTUB2 protein labeling) is given as 18%, the NUDT7 % labeling (NUDT7) is given as 0% and the “ln(avg k)” value [1, 4] is given as -17.321. The “ln(avg k)” value [1, 5] was -17.321.
For `CC1CCC2(CC1)NC(=O)N(NC(=O)CCl)C2=O` (stereo not shown) [PCM-0102666, CC1CCC2(CC1)NC(=O)N(NC(=O)CCl)C2=O], the OTUB2 % labeling (OTUB2) is listed as 0%, the NUDT7 % labeling (NUDT7) is listed as 0% and the “ln(avg k)” value [1, 2] is listed as -17.364. The “ln(avg k)” value [1, 3] was -17.364.
In the case of `Cc1ccc(S(=O)(=O)N2CCN(C(=O)CCl)CC2)cc1C` [PCM-0102379, Cc1ccc(S(=O)(=O)N2CCN(C(=O)CCl)CC2)cc1C], the OTUB2 % labeling (OTUB2) is listed as 0%, the NUDT7 % labeling (NUDT7) is listed as 10% and the “ln(avg k)” value [1, 2] is listed as -15.076. The “ln(avg k)” value [1, 3] was -15.076.
In the case of `COC(=O)C1CCN(C(=O)CCl)CC1` [PCM-0102978, COC(=O)C1CCN(C(=O)CCl)CC1], the OTUB2 % labeling (OTUB2; OTUB2 protein labeling) is listed as 0%, the NUDT7 % labeling (NUDT7) is listed as 0% and the “ln(avg k)” value [1, 4] is listed as -16.559. For the same compound, the “ln(avg k)” value [1, 5] was -16.559.
For `O=C(CCl)Nc1ccc(Cl)cc1Cl` [PCM-0102914, O=C(CCl)Nc1ccc(Cl)cc1Cl], the OTUB2 % labeling (OTUB2; OTUB2 protein labeling) is given as 14%, the NUDT7 % labeling (NUDT7) is given as 22% and the “ln(avg k)” value [1, 4] is given as -16.384. The “ln(avg k)” value [1, 5] was -16.384.
For `O=C(CCl)N1CCC(C(=O)N2CCCCC2)CC1` [PCM-0102972, O=C(CCl)N1CCC(C(=O)N2CCCCC2)CC1], the OTUB2 % labeling (OTUB2; OTUB2 protein labeling) is given as 8%, the NUDT7 % labeling (NUDT7) is given as 0% and the “ln(avg k)” value [1, 4] is given as -15.512. For the same compound, the “ln(avg k)” value [1, 5] was -15.512.
In the case of `O=C(CCl)Nc1ccc(Cl)c([N+](=O)[O-])c1` [PCM-0102316, O=C(CCl)Nc1ccc(Cl)c([N+](=O)[O-])c1], the OTUB2 % labeling (OTUB2) is given as 36%, the NUDT7 % labeling (NUDT7) is given as 28% and the “ln(avg k)” value [1, 2] is given as -15.463. The “ln(avg k)” value [1, 3] was -15.463.
For `Cc1c(C#N)c(NC(=O)CCl)n(-c2ccc(F)cc2)c1C` [PCM-0102099, Cc1c(C#N)c(NC(=O)CCl)n(-c2ccc(F)cc2)c1C], the OTUB2 % labeling (OTUB2) is given as 0%, the NUDT7 % labeling (NUDT7) is given as 17% and the “ln(avg k)” value [1, 2] is given as -15.940. For the same compound, the “ln(avg k)” value [1, 3] was -15.940.
In the case of `Cc1cc(N2CCN(C(=O)CCl)CC2)nc(C(C)C)n1` [PCM-0102638, Cc1cc(N2CCN(C(=O)CCl)CC2)nc(C(C)C)n1], the OTUB2 % labeling (OTUB2) is given as 0%, the NUDT7 % labeling (NUDT7) is given as 0% and the “ln(avg k)” value [1, 2] is given as -16.816. For the same compound, the “ln(avg k)” value [1, 3] was -16.816.
For `O=C(CCl)NCc1ccco1` [PCM-0102671, O=C(CCl)NCc1ccco1], the OTUB2 % labeling (OTUB2) is given as 35%, the NUDT7 % labeling (NUDT7) is given as 0% and the “ln(avg k)” value [1, 2] is given as -16.464. For the same compound, the “ln(avg k)” value [1, 3] was -16.464.
In the case of `NC(=O)C1CCCN(C(=O)CCl)C1` (stereo not shown) [PCM-0102495, NC(=O)C1CCCN(C(=O)CCl)C1], the OTUB2 % labeling (OTUB2) is listed as 0%, the NUDT7 % labeling (NUDT7) is listed as 0% and the “ln(avg k)” value [1, 2] is listed as -15.454. The “ln(avg k)” value [1, 3] was -15.454.
In the case of `Cn1nc(-c2ccc(Cl)cc2)cc1NC(=O)CCl` [PCM-0102296, Cn1nc(-c2ccc(Cl)cc2)cc1NC(=O)CCl], the OTUB2 % labeling (OTUB2) is listed as 38%, the NUDT7 % labeling (NUDT7) is listed as 54% and the “ln(avg k)” value [1, 2] is listed as -15.558. For the same compound, the “ln(avg k)” value [1, 3] was -15.558.
For `O=C(CCl)Nc1nc2c(s1)CCC2` [PCM-0102457, O=C(CCl)Nc1nc2c(s1)CCC2], the OTUB2 % labeling (OTUB2) is listed as 0%, the NUDT7 % labeling (NUDT7) is listed as 37% and the “ln(avg k)” value [1, 2] is listed as -15.357. The “ln(avg k)” value [1, 3] was -15.357.
In the case of `Cc1ccc(C)c(NC(=O)CCl)c1` [PCM-0102398, Cc1ccc(C)c(NC(=O)CCl)c1], the OTUB2 % labeling (OTUB2) is given as 0%, the NUDT7 % labeling (NUDT7) is given as 0% and the “ln(avg k)” value [1, 2] is given as -16.327. The “ln(avg k)” value [1, 3] was -16.327.
For `CN(C(=O)CCl)C1(C#N)CCCCC1` [PCM-0102916, CN(C(=O)CCl)C1(C#N)CCCCC1], the OTUB2 % labeling (OTUB2; OTUB2 protein labeling) is given as 0%, the NUDT7 % labeling (NUDT7) is given as 0% and the “ln(avg k)” value [1, 4] is given as -15.114. The “ln(avg k)” value [1, 5] was -15.114.
In the case of `N#Cc1c(NC(=O)CCl)sc2c1CCCC2` [PCM-0102580, N#Cc1c(NC(=O)CCl)sc2c1CCCC2], the OTUB2 % labeling (OTUB2) is listed as 10%, the NUDT7 % labeling (NUDT7) is listed as 72% and the “ln(avg k)” value [1, 2] is listed as -16.105. The “ln(avg k)” value [1, 3] was -16.105.
In the case of `Cc1ccc(NC(=O)CCl)cc1Br` [PCM-0102955, Cc1ccc(NC(=O)CCl)cc1Br], the OTUB2 % labeling (OTUB2; OTUB2 protein labeling) is given as 14%, the NUDT7 % labeling (NUDT7) is given as 27% and the “ln(avg k)” value [1, 4] is given as -16.336. The “ln(avg k)” value [1, 5] was -16.336.
In the case of `O=C(CCl)N1CCN(Cc2ccc(Cl)cc2)CC1` [PCM-0102818, O=C(CCl)N1CCN(Cc2ccc(Cl)cc2)CC1], the OTUB2 % labeling (OTUB2; OTUB2 protein labeling) is given as 17%, the NUDT7 % labeling (NUDT7) is given as 0% and the “ln(avg k)” value [1, 4] is given as -15.454. For the same compound, the “ln(avg k)” value [1, 5] was -15.454.
For `O=C(CCl)NC1CCOCC1` [PCM-0103045, O=C(CCl)NC1CCOCC1], the OTUB2 % labeling (OTUB2; OTUB2 protein labeling) is listed as 0%, the NUDT7 % labeling (NUDT7) is listed as 0% and the “ln(avg k)” value [1, 4] is listed as -16.016. The “ln(avg k)” value [1, 5] was -16.016.
For `CNC(=O)CNC(=O)CCl` [PCM-0102279, CNC(=O)CNC(=O)CCl], the OTUB2 % labeling (OTUB2) is given as 10%, the NUDT7 % labeling (NUDT7) is given as 0% and the “ln(avg k)” value [1, 2] is given as -16.473. The “ln(avg k)” value [1, 3] was -16.473.
In the case of `N#Cc1c(NC(=O)CCl)sc2c1CCCCC2` [PCM-0102286, N#Cc1c(NC(=O)CCl)sc2c1CCCCC2], the OTUB2 % labeling (OTUB2) is given as 0%, the NUDT7 % labeling (NUDT7) is given as 33% and the “ln(avg k)” value [1, 2] is given as -16.020. For the same compound, the “ln(avg k)” value [1, 3] was -16.020.
In the case of `O=C(CCl)Nc1ccc(F)cc1` [PCM-0103002, O=C(CCl)Nc1ccc(F)cc1], the OTUB2 % labeling (OTUB2; OTUB2 protein labeling) is listed as 30%, the NUDT7 % labeling (NUDT7) is listed as 0% and the “ln(avg k)” value [1, 4] is listed as -16.182. The “ln(avg k)” value [1, 5] was -16.182.
In the case of `Cc1ccc(CNC(=O)CCl)s1` [PCM-0102973, Cc1ccc(CNC(=O)CCl)s1], the OTUB2 % labeling (OTUB2; OTUB2 protein labeling) is listed as 75%, the NUDT7 % labeling (NUDT7) is listed as 11% and the “ln(avg k)” value [1, 4] is listed as -16.818. The “ln(avg k)” value [1, 5] was -16.818.
In the case of `COC(=O)c1ccc(Cl)c(NC(=O)CCl)c1` [PCM-0102764, COC(=O)c1ccc(Cl)c(NC(=O)CCl)c1], the OTUB2 % labeling (OTUB2; OTUB2 protein labeling) is given as 29%, the NUDT7 % labeling (NUDT7) is given as 7% and the “ln(avg k)” value [1, 4] is given as -16.022. For the same compound, the “ln(avg k)” value [1, 5] was -16.022.
In the case of `CN(Cc1ccc2c(c1)OCCO2)C(=O)CCl` [PCM-0102958, CN(Cc1ccc2c(c1)OCCO2)C(=O)CCl], the OTUB2 % labeling (OTUB2; OTUB2 protein labeling) is given as 9%, the NUDT7 % labeling (NUDT7) is given as 27% and the “ln(avg k)” value [1, 4] is given as -16.177. The “ln(avg k)” value [1, 5] was -16.177.
In the case of `O=C(CCl)N1CCN(c2ccc(F)cc2)CC1` [PCM-0102905, O=C(CCl)N1CCN(c2ccc(F)cc2)CC1], the OTUB2 % labeling (OTUB2; OTUB2 protein labeling) is given as 7%, the NUDT7 % labeling (NUDT7) is given as 10% and the “ln(avg k)” value [1, 4] is given as -15.525. For the same compound, the “ln(avg k)” value [1, 5] was -15.525.
In the case of `O=C(CCl)N1N=C(c2ccco2)CC1c1ccsc1` (stereo not shown) [PCM-0102659, O=C(CCl)N1N=C(c2ccco2)CC1c1ccsc1], the OTUB2 % labeling (OTUB2) is given as 0%, the NUDT7 % labeling (NUDT7) is given as 39% and the “ln(avg k)” value [1, 2] is given as -14.828. The “ln(avg k)” value [1, 3] was -14.828.
For `O=C(CCl)N1CCN(Cc2cccc3ccccc23)CC1` [PCM-0102287, O=C(CCl)N1CCN(Cc2cccc3ccccc23)CC1], the OTUB2 % labeling (OTUB2) is given as 29%, the NUDT7 % labeling (NUDT7) is given as 0% and the “ln(avg k)” value [1, 2] is given as -15.635. The “ln(avg k)” value [1, 3] was -15.635.
In the case of `O=C(CCl)Nc1ccccc1Br` [PCM-0102312, O=C(CCl)Nc1ccccc1Br], the OTUB2 % labeling (OTUB2) is listed as 0%, the NUDT7 % labeling (NUDT7) is listed as 15% and the “ln(avg k)” value [1, 2] is listed as -16.261. For the same compound, the “ln(avg k)” value [1, 3] was -16.261.
